Results as given in US5512553A, “7-(substituted)-8-(substituted)-9-(substituted amino)-6-demethyl-6-deoxytetracyclines” (American Cyanamid Company, priority 1995, dated 1996).
Counter-ions that a name gives are not always drawn. Like-named read-outs stand apart in the source and are kept apart here.

Legend:
[1] = tested on: Staphylococcus aureus strain Smith (tetracycline sensitive); assay: In vivo antibacterial evaluation, acute lethal infection in mice; details: 168 h, female mice CD-1, intraperitoneal challenge with S. aureus Smith, dosed subcutaneously or orally 30 minutes after infection, 7 day survival ratios
Protocol: In Vivo Antibacterial Evaluation (Table III)
The therapeutic effects of tetracyclines are determined against an acute lethal infection with Staphylococcus aureus strain Smith (tetracycline sensitive). Female, mice, strain CD-1 (Charles River Laboratories), 20±2 grams, are challenged by an intraperitoneal injection of sufficient bacteria (suspended in hog mucin) to kill non-treated controls within 24-48 hours. Antibacterial agents, contained in 0.5 ml of 0.2% aqueous agar, are administered subcutaneously or orally 30 minutes after infection. When an oral dosing schedule is used, animals are deprived of food for 5 hours before and 2 hours after infection. Five mice are treated at each dose level. The 7 day survival ratios from 3 separate tests are pooled for calculation of median effective dose (ED50).

E. coli UBMS 88-1 (tetB) = assay: microbe, parasite or virus in culture; assay type: cell-based; details: Escherichia coli, 18 h
Protocol: (§1) Method for In Vitro Antibacterial Evaluation (Table I)
(§2) The minimum inhibitory concentration (MIC), the lowest concentration of the antibiotic which inhibits growth of the test organism, is determined by the agar dilution method using Muller-Hinton II agar (Baltimore Biological Laboratories). An inoculum density of 1-5×10^5 CFU/ml and an antibiotic concentration (32-≤0.015 μg/ml) is used. The plates are incubated for 18 hours at 35° C. in a forced air incubator. The test organisms comprise strains sensitive to tetracycline and genetically defined strains that are resistant to tetracycline, due to inability to bind bacterial ribosomes (tetM).

[2] = tested on: S. aureus UBMS 88-5 (tetM); assay: microbe, parasite or virus in culture; assay type: cell-based; details: Staphylococcus aureus, 18 h
Protocol: as §1, §2

E. coli UBMS 89-1 (tetM) = assay: microbe, parasite or virus in culture; assay type: cell-based; details: Escherichia coli, 18 h
Protocol: as §1, §2

[3] = tested on: S. aureus UBMS 88-7 (tetK); assay: microbe, parasite or virus in culture; assay type: cell-based; details: Staphylococcus aureus, 18 h
Protocol: as §1, §2

[4] = tested on: S. aureus UBMS 90-1 (tetM); assay: microbe, parasite or virus in culture; assay type: cell-based; details: Staphylococcus aureus, 18 h
Protocol: as §1, §2

[5] = tested on: S. aureus UBMS 90-2 (tetM); assay: microbe, parasite or virus in culture; assay type: cell-based; details: Staphylococcus aureus, 18 h
Protocol: as §1, §2

[6] = tested on: S. aureus IVES 2943 (meth. resistant); assay: In vitro antibacterial evaluation, MIC by agar dilution; assay type: cell-based; details: Staphylococcus aureus, 18 h
Protocol: as §1, §2

[7] = tested on: S. aureus SMITH (MP) (sensitive); assay: as above; assay type: cell-based; details: Staphylococcus aureus
Protocol: as §1, §2

E. coli ATCC 25922 = assay: as above; assay type: cell-based; details: Escherichia coli
Protocol: as §1, §2

[8] = tested on: S. aureus UBMS 88-4 (sensitive); assay: as above; assay type: cell-based; details: Staphylococcus aureus, 18 h
Protocol: as §1, §2

[9] = tested on: S. aureus ATCC 29213 (sensitive); assay: as above; assay type: cell-based; details: Staphylococcus aureus
Protocol: as §1, §2

[10] = tested on: E. coli UBMS 89-2 (sensitive); assay: as above; assay type: cell-based; details: Escherichia coli, Muller-Hinton II agar, 18 hours at 35° C.
Protocol: as §1, §2

S. haemol. AVAH 88-3 = assay: as above; assay type: cell-based
Protocol: as §1, §2

[11] = tested on: E. coli UBMS 88-2 (sensitive); assay: as above; assay type: cell-based; details: Escherichia coli
Protocol: as §1, §2

Enteroc. spp. 12201 = assay: as above; assay type: cell-based
Protocol: as §1, §2

[12] = tested on: S. aureus IVES 1983 (MP) (meth. resistant); assay: as above; assay type: cell-based; details: Staphylococcus aureus
Protocol: as §1, §2

S. faecal. ATCC 29212 = assay: as above; assay type: cell-based
Protocol: as §1, §2

[13] = tested on: S. aureus UBMS 90-3 (sensitive); assay: as above; assay type: cell-based; details: Staphylococcus aureus
Protocol: as §1, §2

[14] = tested on: S30 extract from derivative of E. coli MRE 600 containing the tetM determinant; assay: E. coli in vitro cell free protein translation system, TetM S30; assay type: biochemical; details: for % Inhibition TetM S30: 35S-methionine incorporation, 30 minutes at 37° C.
Source text: (§3) E. coli in Vitro protein Translation System (Table II)
(§4) An in vitro, cell free, protein translation system using extracts from E. coli strain MRE 600 (tetracycline sensitive) and a derivative of MRE 600 containing the tetM determinant has been developed based on literature methods J. M. Pratt, Coupled Transcription-translation in Prokaryotic Cell-free Systems, Transcription and Translation, a Practical Approach, (B. D. Hames and S. J. Higgins, eds) p. 179-209, IRL Press, Oxford-Washington, 1984!.
(§5) Using the system described above, the tetracycline compounds of the present invention are tested for their ability to inhibit protein synthesis in vitro. Briefly, each 10 μl reaction contains S30 extract (a whole extract) made from either tetracycline sensitive cells or an isogenic tetracycline resistant (tetM) strain, low molecular weight components necessary for transcription and translation (i.e., ATP and GTP), a mix of 19 amino acids (no methionine), ^35 S labeled methionine, DNA template (either pBR322 or pUC119), and either DMSO (control) or the novel tetracycline compound to be tested ("novel TC") dissolved in DMSO.
(§6) The reactions are incubated for 30 minutes at 37° C. Timing is initiated with the addition of the S30 extract, the last component to be added. After 30 minutes, 2.5 μl of the reaction is removed and mixed with 0.5 ml of 1N NaOH to destroy RNA and tRNA. Two to three ml of 25% trichloroacetic acid is added and the mixture incubated at room temperature for 15 minutes. The trichloroacetic acid precipitated material is collected on Whatman GF/C filters and washed with a solution of 10% trichloroacetic acid. The filters are dried and the retained radioactivity, representing incorporation of ^35 S-methionine into polypeptides, is counted using standard liquid scintillation methods.
(§7) The percent inhibition (P.I.) of protein synthesis is determined to be: [formula]

[15] = tested on: S30 extract from E. coli strain MRE 600 (tetracycline sensitive); assay: E. coli in vitro cell free protein translation system, Wild Type S30; assay type: biochemical; details: for % Inhibition Wild Type S30: 35S-methionine incorporation, 30 minutes at 37° C.
Source text: as §3, §4, §5, §6, §7

[16] = agar dilution, Muller-Hinton II agar, 18 hours at 35° C., S. aureus SMITH (MP) (sensitive), read-out: MIC
[17] = ATCC29213, agar dilution, Muller-Hinton II agar, 18 hours at 35° C., S. aureus ATCC 29213 (sensitive), read-out: MIC
[18] = agar dilution, Muller-Hinton II agar, 18 hours at 35° C., S. aureus UBMS 90-3 (sensitive), read-out: MIC
[19] = agar dilution, Muller-Hinton II agar, 18 hours at 35° C., S. faecal. ATCC 29212, read-out: MIC

Row | Compound | ED50 [1] [mg/kg] | MIC (E. coli UBMS 88-1 (tetB)) [µg/mL] | MIC [2] [µg/mL] | MIC (E. coli UBMS 89-1 (tetM)) [µg/mL] | MIC [3] [µg/mL] | MIC [4] [µg/mL] | MIC [5] [µg/mL] | MIC [6] [µg/mL] | MIC (E. coli ATCC 25922; ATCC25922, 18 h) [µg/mL] | MIC [8] [µg/mL] | MIC [9, 17] [µg/mL] | MIC [10] [µg/mL] | MIC (S. haemol. AVAH 88-3; 18 h) [µg/mL] | MIC ([11]; 18 h) [µg/mL] | MIC (Enteroc. spp. 12201; 18 h) [µg/mL] | MIC ([12]; 18 h) [µg/mL] | MIC (S. faecal. ATCC 29212; 18 h) [µg/mL] | MIC ([7]; 18 h) [µg/mL] | MIC ([13]; 18 h) [µg/mL] | also measured
1 | CN(C)[C@@H]1C(O)=C(C(N)=O)C(=O)[C@@]2(O)C(O)=C3C(=O)c4c(cc(Cl)c(NC=O)c4O)CC3CC12 (some centres unmarked) [A HCL] | 4 to 8 |  |  |  |  |  |  |  |  |  |  |  |  |  |  |  |  |  |  | 
2 | CN(C)c1c(Cl)cc(O)c2c1CC1CC3[C@H](N(C)C)C(O)=C(C(N)=O)C(=O)[C@@]3(O)C(O)=C1C2=O (some centres unmarked) [B, 8-Chloro-4,7-bis(dimethylamino)-1,4,4a,5-5a,6,11,12a-octahydro-3,10,12,12a-tetrahydroxy-1,11-dioxo-2-naphthacenecarboxamide sulfate] | > 16 | > 32 | 0.5 | > 32 | 0.5 | 0.05 | 0.5 | 1 | 8 | 0.03 | ≤ 0.015 | 16 | 0.25 | 8 | 1 | 1 | 1 |  |  | MIC [7, 16]: 0.06 µg/mL; MIC [13, 18]: 0.06 µg/mL
3 | CN(C)c1c(Cl)c(NC=O)c(O)c2c1CC1CC3C(N(C)C)C(O)=C(C(N)=O)C(=O)C3(O)C(O)=C1C2=O.O=S(=O)(O)O (centres unmarked) [F, 8-Chloro-4,7-bis(dimethylamino)-9-(formylamino)-1,4,4a,5,5a,6,11,12a-octahydro-3,10,12,12a-tetrahydroxy-1,11-dioxo-2-naphthacenecarboxamide sulfate] |  | > 32 | 0.25 | 0.5 | 4 | 0.5 | 0.12 | 8 | 0.25 | 0.12 |  | 1 | 0.12 | 1 | 0.5 | 8 | 0.06 | 0.06 | 0.06 | MIC ([9]; ATCC29213, 18 h): 0.06 µg/mL
4 | CN(C)c1c(Cl)c(N)c(O)c2c1CC1CC3[C@H](N(C)C)C(O)=C(C(N)=O)C(=O)[C@@]3(O)C(O)=C1C2=O (some centres unmarked) [H, 9-Amino-8-chloro-4,7-(dimethylamino)-1,4-4a,5,5a,6,11,12a-octahydro-3,10,12,12a-tetrahydroxy-1,11-dioxo-2-naphthacenecarboxamide sulfate] | 4 to 8 | > 32 | 1 |  | 0.25 | 2 | 0.5 | 1 | 4 | 0.12 | < 0.015 | 16 | 0.12 |  | 4 | 4 |  | 0.06 | 0.12 | % Inhibition TetM S30 ([14]; Conc. 0.1 mg/ml): 19%; % Inhibition TetM S30 ([14]; Conc. 0.3 mg/ml): 21%; % Inhibition TetM S30 ([14]; Conc. 1.0 mg/ml): 29%; % Inhibition Wild Type S30 ([15]; Conc. 0.1 mg/ml): 52%; % Inhibition Wild Type S30 ([15]; Conc. 0.3 mg/ml): 62%; % Inhibition Wild Type S30 ([15]; Conc. 1.0 mg/ml): 57%; MIC ([11]; agar dilution, Muller-Hinton II agar, 18 hours at 35° C., E. coli UBMS 88-2 (sensitive), read-out: MIC): 8 µg/mL; MIC (S. faecal. ATCC 29212; [19]): 0.5 µg/mL
5 | CN(C)[C@@H]1C(O)=C(C(N)=O)C(=O)[C@@]2(O)C(O)=C3C(=O)c4c(cc(Cl)c(NN)c4O)CC3CC12 (stereo partly drawn) [J, 4S-(4alpha, 12aalpha)!-8-Chloro-4-(dimethylamino)-9-hydrazino-1,4,4a,5,5a,6-11,12a-octahydro-3,10,12,12a-tetrahydroxy-1,11-dioxo-2-naphthacenecarboxamide monohydrochloride] | > 16 | 32 | 0.5 | 16 | 1 | 0.5 | 0.5 |  |  | 0.06 | ≤ 0.015 | 4 |  | 2 |  |  |  |  |  | MIC [7, 16]: 0.03 µg/mL; MIC (E. coli ATCC 25922; ATCC25922, agar dilution, Muller-Hinton II agar, 18 hours at 35° C., E. coli ATCC 25922, read-out: MIC): 1 µg/mL; MIC (S. haemol. AVAH 88-3; agar dilution, Muller-Hinton II agar, 18 hours at 35° C., S. haemol. AVAH 88-3, read-out: MIC): 0.25 µg/mL; MIC (Enteroc. spp. 12201; agar dilution, Muller-Hinton II agar, 18 hours at 35° C., Enteroc. spp. 12201, read-out: MIC): 0.05 µg/mL; MIC ([12]; agar dilution, Muller-Hinton II agar, 18 hours at 35° C., S. aureus IVES 1983 (MP) (meth. resistant), read-out: MIC): 2 µg/mL; MIC (S. faecal. ATCC 29212; [19]): 0.5 µg/mL; MIC [13, 18]: 0.03 µg/mL
6 | CN(C)[C@@H]1C(=O)C(C(N)=O)=C(O)[C@@]2(O)C(=O)C3=C(O)c4c(O)cccc4[C@@](C)(O)[C@H]3C[C@@H]12 [K, Tetracycline hydrochloride, reference compound] |  | > 32 | > 32 | 16 | > 32 | > 32 | 32 | > 32 | 0.5 | 0.12 |  | 1 | 1 | 0.25 | 32 | > 32 | 16 | 0.06 | 0.06 | inhibition of protein synthesis, in words ([14]; cell-free extracts from strain MRE600 (tetM)): resistant; inhibition of protein synthesis, in words ([15]; cell-free extracts from tetracycline susceptible strain MRE600): inhibited; MIC ([9]; ATCC29213, 18 h): ≤ 0.015 µg/mL
7 | CCN(CC)c1c(Cl)c(N)c(O)c2c1CC1CC3[C@H](N(C)C)C(O)=C(C(N)=O)C(=O)[C@@]3(O)C(O)=C1C2=O (some centres unmarked) [M] | > 16 |  |  |  |  |  |  |  |  |  |  |  |  |  |  |  |  |  |  | 
